Experiment [1] deals with MCA205 cells. The experiment is described as follows: Anti-tumor vaccination assay, MCA205 cells in C57BL/6 mice. Conditions: rechallenge one week later. The format is in vivo, mouse. On the procedure: (§1) FIG. 5. Identification of cannibalism modulators as immunogenic cell death inducers. MCA205 (A) or CT26 (E, I, M, Q) cells were treated with the indicated drugs. After 24 h of coculture with the indicated treatment, cell death was monitored by staining DiOC6(3) and PI, and the percentage of dying (DiOC6(3)^low PI^−, open bars) and dead (DiOC6(3)^low PI^+, closed bars) cells was determined by cytofluorometry. (B-D) MCA205 cells or (F-H, J-L, N-P, R-T) CT26 cells cocultured after x irradiation with the indicated compounds were inoculated subcutaneously into the right flank of […] or BALB/c mice, respectively. Seven days later, the mice were rechallenged with live cells injected into the opposite flank, and tumor growth was monitored (five mice per group).
(§2) The combination of IRCCE with IR induces efficient antitumor immunity. Considering that immunogenic cell death (ICD) inducers were identified (such as Digoxin, Digitoxin, Lanatoside C or Doxorubicin hydrochloride)^3, 4, 48-51) as IRCCE, the ability of these compounds to induce an antitumor immunity after radiotherapy was evaluated. […] Tumors were evaluated weekly using a common caliper. […] One week later, 5×10^5 untreated control cells were inoculated into the contralateral flank of mice and tumors were evaluated weekly using a common caliper. […]

The test system of experiment [2] is MCA205 cells. Put plainly: Cell death of treated MCA205 cells (DiOC6(3)/PI cytofluorometry). It counts as cell-based, mouse. The conditions noted are these: 10 μM compound alone, 24 h. On the procedure: as §1, §2
The next experiment concerns HCT116 cells. Put plainly: Screening of chemical libraries for IR-mediated cellular cannibalism (imaging flow cytometry, confocal validation). The format is cell-based, human. Conditions: 8 Gy irradiated HCT116 cells, 10 μM compound, 24 h culture. On the procedure:
FIG. 4 Identification of cannibalism modulators triggered by ionizing radiation. Compounds from the Prestwick (A) and CEA (F) libraries were tested for their capacities to induce cellular cannibalism after ionizing radiation. Cannibal cells were detected after homotypic cultures of 8 gray γ-irradiation HCT116 cells in the presence or absence of 10 μM of the Prestwick (A) and CEA […] library compounds. Each dot represents one compound. Representative images are shown in (B, G). (C, H) HCT116 cells were treated with the indicated drugs. After 24 h of treatment, cell death was monitored by staining with 3,3 dihexyloxacarbocyanine iodide (DiOC6(3)) and PI^+, and the percentage of dying (DiOC6(3)^low PI^−, open bars) and dead (DiOC6(3)^low PI^+, closed bars) cells was determined by cytofluorometry. Validation of the cannibalism inducers by fluorescent microscopy. Representative images (D, I) and quantification (E, J) are shown. Results are means s.e.m. of triplicate determinations.
Untreated HCT116 cells were labeled with CMFDA (green fluorescence, CMFDA^+) or CMTMR, (red fluorescence, CMTMR) and treated HCT116 cells with CMFDA (green fluorescence, CMFDA^+). The following cell mixtures were performed: untreated CMTMR^+ HCT116 cells were mixed with untreated CMFDA^+ HCT116 cells, or untreated CMTMR^+ HCT116 cells were mixed with treated CMFDA^+ HCT116 cells. Then, cells were co-cultured during 24 hours in the presence or absence of the pharmacological inhibitor of ROCK, Y27632 (30 μM), the pan-caspase inhibitor, Z-VAD-fmk (ZVAD, 100 μM), the inhibitor of caspase-1, Ac-YVAD-cmk (YVAD, 100 μM), the necroptosis inhibitor, Necrostatin-1 (NEC1, 30 μM), the inhibitor of the vacuolar type H(+)-ATPase (V-ATPase) inhibiting autophagy, Bafilomycin A1 (BafA1, 50 nM), the inhibitor of Cdks with an anti-mitotic activity, Roscovitine (Rosco, 10 μM). After 24 hours of co-culture, both detached and adherent cells were collected and stained with Hoechst […] (10 μg/mL) during 1 hour at 37° C. in warmed complete medium. To detect phosphatidylserine (PS) exposure and plasma membrane permeability, labeled HCT116 cells were successively incubated with Biotin-AnnexinV (BD Pharmingen) as recommended by manufacturer, […] BV786-Streptavidin (BD Biosciences) and 3 μM DRAQ7 (BioStatus) during 15 minutes at 25° C. After washing with PBS solution, samples were immediately analyzed using an imaging flow cytometer FlowSight® (Amnis®, part of EMD Millipore). Data were acquired at a 20× magnification, using INSPIRE software. The 405 nm, 488 nm, and 561 nm lasers were used for excitation. Brightfield, Annexin V-BV786, DRAQ7, CMFDA, CMTMR and Hoechst […] stainings were detected using respectively channels for 420-480 nm, 745-800 nm, 642-745 nm, 480-560 nm, 595-642 nm and 430-505 nm. At least 1000 events of cells per sample were analyzed. Additional single-labeled controls were prepared to normalize fluorescent signal across different channels. Acquired data were analyzed using the IDEAS analysis software (v6.1; Merck-Millipore). Gating strategy was the following. Cells were gated for focused cells using the Gradient RMS feature. Cells were gated for single cells using the aspect ratio and area features. For the cannibalism detection, cells were gated in the double positive CMFDA^+ and CMTMR^+ staining.
To detect PS exposure, plasma membrane permeability and cell cycle progression, cells were after co-culture sequentially labeled with specific fluorescent probes (such as FITC-conjugated AnnexinV, propidium iodide, and Hoechst 33342) and analyzed by flow cytometry. Both detached and adherent cells were collected and stained with Hoechst […] (10 μg/ml) during 1 hour at 37° C. in warmed complete medium. After washing with PBS, HCT116 cells were suspended in 1× binding buffer supplemented with fluorescein isothiocyanate (FITC)-conjugated Annexin V (BD Biosciences) and propidium iodide (PI, 1 μg/mL) (Sigma), as per manufacturer's instructions. […]
Background: A flow cytometer gives signals particle by particle.

A further experiment concerns CT26 cells. The experiment is described as follows: Anti-tumor vaccination assay, CT26 cells in BALB/c mice. Conditions: 8 Gy + 10 μM compound 24 h. It counts as in vivo, mouse. On the procedure: as §1
FIG. 6. Tumor vaccination experiments. CT26 cells were treated for 24 hours with 10 μM VP331 (A, F, K), 10 μM Minaprine (B, G, L), 10 μM Lopa87 (C, H, M), 10 μM SG6163F (D, I, N), 10 μM Azaguanine-8 (8-aza) (E, J, O) alone or combined with 8 Gy ionizing radiation and inoculated (s.c.) into immunocompetent BALB/c mice, which were rechallenged at the opposite flank 7 days later with the same cancer cells. The percentage of tumor-free mice was evaluated three times a week for the following 38 days. Percentage of total tumor free mice (A-E), tumor free-mice at the first injection site (F to J, P) or at the second injection site (K to O, Q) are shown. (*P<0.05, **P<0.01, ***P<0.001, two-way ANOVA).
The combination of IRCCE with IR induces efficient antitumor immunity. Considering that immunogenic cell death (ICD) inducers were identified (such as Digoxin, Digitoxin, Lanatoside C or Doxorubicin hydrochloride)^3, 4, 48-51) as IRCCE, the ability of these compounds to induce an antitumor immunity after radiotherapy was evaluated. First, a preclinical approaches was developed to study the immunological effects of IRCCE on two mouse models of carcinoma (colon CT26 carcinoma and fibrosarcoma MCA205). Initially, the ability of the combination of IRCCE+IR to trigger a specific anti-tumor immune response was appreciated using immunocompetent mice through anti-tumor vaccination assays. According to previously published studies^52, the injection of cancer cells succumbing to an immunogenic cell death (ICD) into immunocompetent mice must elicit a protective immune response that is specific for tumor antigens. Thus, 3×10^5 MCA205 cells were first treated with 10 μM of SG6163F for 24 hours. Then, treated cells were inoculated subcutaneously in 200 μl PBS into the lower flank of 8-week-old female C57BL/6 mice. One week later, 3×10^4 untreated control cells were inoculated into the contralateral flank of mice. Tumors were evaluated weekly using a common caliper. Animals bearing tumors that exceeded 20-25% body mass were euthanatized. […] Then, 3×10^6 CT26 cells were irradiated with 8 Gy in presence of 10 μM of SG6163F (FIGS. 5E and 5F), VP331 (FIGS. 5I and 5J), Minaprine dihydrochloride (FIGS. 5M and 5N) or LOPA87 (FIGS. 5Q and 5R) for 24 hours. Then, cells were inoculated as previously described subcutaneously in […] into the lower flank of 8-week-old female BALB/c mice. One week later, 5×10^5 untreated control cells were inoculated into the contralateral flank of mice and tumors were evaluated weekly using a common caliper. As previously mentioned, animals bearing tumors that exceeded 20-25% body mass were euthanatized. The percentage of dying cells in each condition was evaluated by determining with DiOC(6)3/IP staining (FIGS. 5E, 5I, 5M and 5Q). Finally, the ability of these compounds to repress the growth of cancer cells that have been injected 7 days after injection of irradiated and treated cancer cells was appreciated.
A second anti-tumor vaccination assay was done on CT26 mouse models of carcinoma as previously described. […]

For `O=C1NC(c2ccccc2)=N/C1=C\c1cc2ccccc2c2ccccc12` [SG6163F], the “protective response after inoculation of untreated cells” value with MCA205 cells [1] (MCA205 cells treated with 10 μM compound alone, s.c. in C57BL/6 mice) is “did not exhibit a protective response”. Also, the “mice with protective response” value in the experiment on MCA205 cells [1] (MCA205 cells treated with 8 Gy of IR and 10 μM compound, C57BL/6 mice) is recorded as 3 of 5. Moreover, the “increase of cell death in vitro” value in the experiment on MCA205 cells [2] is recorded as “not able to induce a significant increase of cell death”. In addition, the “enhancement of IR-mediated cellular cannibalism” value with HCT116 cells was “efficient cellular cannibalism enhancer”. The “frequency of mice showing a protective response” value in the experiment on CT26 cells (first assay: CT26 cells, rechallenge one week later) is “significant increase in the frequency of mice showing a protective response”; in the experiment on CT26 cells (second assay: CT26 cells, rechallenge 7 days later) it was “Significant increases in the frequency of mice showing a protective response”.

These data come from US11517575B2, “Use of minaprine to reduce tumor growth” (Institut Gustave-Roussy, priority 2019, dated 2022).
